Structures can show the parent of a compound that is named as a salt. Each block holds one compound with its values, some of them ahead of it.
What was measured:
Assay type in all cases: physicochemical
[1] = Water uptake / hygroscopicity at relative humidity (sorption-desorption)
[2] = Solvent loss as a function of temperature as measured by TG/DTA
Procedure: (ii) Thermogravimetric/Differential Thermal Analysis (TG/DTA)
Differential scanning calorimetry was conducted for each crystalline form using a Seiko TG/DTA Instrument. For each analysis, the DSC cell/sample chamber was purged with 100 mL/min of ultra-high purity nitrogengas. The instrument was calibrated with high purity indium. The heating rate was 10° C. per minute in the temperature range between 25 and 300° C. The heat flow, which was normalized by sample weight, was plotted versus the measured sample temperature. The data were reported in units of watts/gram (“W/g”). The plot was made with the endothermic peaks pointing down. The endothermic melt peak (melting point) was evaluated for extrapolated onset temperature.

[3] = Solid form stability on wet granulation, equilibration, humidity exposure, compression, grinding (XRPD); conditions: for form change on wet granulation: wet granulation (with water)
Procedure: (i) X-Ray Powder Diffraction (XRPD) The X-ray powder diffraction pattern was determined using a Scintag XDS 2000 diffractometer instrument. The X-ray diffraction pattern was recorded between 2° and 35° (2θ) with CuK radiation (45 kV, 40 mA). The measurements were performed at about 45 kV and 40 mA under the following conditions: • Scan rate: 0.5° (20)/min • Chopper increment: 0.02° • Slits (from left to right): 2, 3, 0.3, 0.2 mm

Flowability of the solid = assay: Flowability of the solid

hygroscopicity (in words) [1]: hygroscopic | water uptake ([1]; at 95% RH): 13.8%
Compound: CCOC(=O)[C@H](C)CC(Cc1ccc(-c2ccccc2)cc1)NC(=O)CCC(=O)O (stereo partly drawn) [Modification A, calcium salt of N-(3-carboxyl-1-oxopropyl)-(4S)-(p-phenylphenylmethyl)-4-amino-(2R)-methyl butanoic acid ethyl ester]

hygroscopicity (in words) [1]: only slightly hygroscopic | water uptake, maximum reached ([1]; can reach up to): up to 11% | hygroscopicity (water uptake) under typical humidity levels ([1]; up to 75% RH): < 2% | thermal stability [2]: thermally stable up to its melting point | form change on equilibration in solvent ([3]; equilibration in water or ethanol/water 1:1): Hydrate formation was observed | form change on wet granulation [3]: Hydrate formation was observed
Compound: CCOC(=O)[C@H](C)CC(Cc1ccc(-c2ccccc2)cc1)NC(=O)CCC(=O)O (stereo partly drawn) [Modification B, calcium salt of N-(3-carboxyl-1-oxopropyl)-(4S)-(p-phenylphenylmethyl)-4-amino-(2R)-methyl butanoic acid ethyl ester]

behaviour at humidity (in words) ([1]; 25° C., relative humidity from 0% to 80%): remains dry | water uptake ([1]; at 95% RH): 2.0% | form retention during take-up and release of water ([1]; sorption-desorption experiments): retained | water levels as obtained [2]: 1.4-4.1% | Loss on drying (LOD) ([2]; TG/DTA, 10° C./min, nitrogen, listed as HB): 3.4% | temperature required for complete dehydration ([2]; heating): above 97 °C | flowability (Flowability of the solid): good flowability properties
Compound: CCOC(=O)[C@H](C)CC(Cc1ccc(-c2ccccc2)cc1)NC(=O)CCC(=O)O (stereo partly drawn) [Modification HB, calcium salt of N-(3-carboxyl-1-oxopropyl)-(4S)-(p-phenylphenylmethyl)-4-amino-(2R)-methyl butanoic acid ethyl ester]

water uptake ([1]; at 80% RH): 15.2% | form change on exposure to elevated humidity ([3]; >75% RH): turns into a crystalline hydrate | form change after compression ([3]; compression for 5 min at 10 t, XRPD): No change of the amorphous form | form change after grinding ([3]; grinding, XRPD): No change of the amorphous form | form change on wet granulation [3]: rapidly leads to hydrate formation
Compound: CCOC(=O)[C@H](C)CC(Cc1ccc(-c2ccccc2)cc1)NC(=O)CCC(=O)O (stereo partly drawn) [amorphous AHU377 calcium salt, calcium salt of N-(3-carboxyl-1-oxopropyl)-(4S)-(p-phenylphenylmethyl)-4-amino-(2R)-methyl butanoic acid ethyl ester]

Reference: patent US11786498B2, “Sacubitril calcium salts” (Novartis AG, priority 2015, dated 2023)
